# Measurements taken from ChEMBL document CHEMBL1201862, “PubChem BioAssay data set” (2004).
#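 Values below derive from 48-hour exposures of cells grown in 96-well plates, with endpoints linearly interpolated between the two concentrations bracketing the appropriate inhibition level. GI50: concentration for 50% inhibition of growth.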 Calls of active or inactive are those of the source. Cut-off read from the data, not from the text of the source: active = GI50 up to about 1.1 µM and inactive = higher.
# Assays:
# Assay in all cases: NCI-60 cell line screen, 48 h
# Malme-3M = test system: Malme-3M
# NCI-H226 = test system: NCI-H226
# OVCAR-3 = test system: OVCAR-3
# TK-10 = test system: TK-10
# SW-620 = test system: SW-620
# IGROV-1 = test system: IGROV-1
# HT-29 = test system: HT-29
# SK-MEL-5 = test system: SK-MEL-5
# SK-OV-3 = test system: SK-OV-3
# HCT-15 = test system: HCT-15
# NCI-H460 = test system: NCI-H460
# SF-539 = test system: SF-539
# OVCAR-8 = test system: OVCAR-8
# HCT-116 = test system: HCT-116
# M14 = test system: M14
# K562 = test system: K562
# DMS-114 = test system: DMS-114
# SNB-19 = test system: SNB-19
# HOP-18 = test system: HOP-18
# LXFL 529 = test system: LXFL 529
# CCRF-CEM = test system: CCRF-CEM
# UACC-62 = test system: UACC-62
# 786-0 = test system: 786-0
# SR = test system: SR
# NCI-H23 = test system: NCI-H23
# EKVX = test system: EKVX
# HL-60 = test system: HL-60
# SK-MEL-28 = test system: SK-MEL-28
# KM12 = test system: KM12
# DLD-1 = test system: DLD-1
# UO-31 = test system: UO-31
# COLO 205 = test system: COLO 205
# HOP-62 = test system: HOP-62
# ACHN = test system: ACHN
# A549 = test system: A549
# U-251 = test system: U-251
# RXF 631 = test system: RXF 631
# OVCAR-4 = test system: OVCAR-4
# OVCAR-5 = test system: OVCAR-5
# LOX IMVI = test system: LOX IMVI
# HCC 2998 = test system: HCC 2998
# UACC-257 = test system: UACC-257
# SK-MEL-2 = test system: SK-MEL-2
# KM-20L2 = test system: KM-20L2
# SNB-78 = test system: SNB-78
# RXF 393 = test system: RXF 393
# SF-268 = test system: SF-268
# SF-295 = test system: SF-295
# MOLT-4 = test system: MOLT-4
# M19-MEL = test system: M19-MEL
# CAKI-1 = test system: CAKI-1
# SN12C = test system: SN12C
# HOP-92 = test system: HOP-92
# A498 = test system: A498
# DMS-273 = test system: DMS-273
# SNB-75 = test system: SNB-75
structure (smiles),measurement,setting,value
NC(=O)N/N=C(\CCC(=O)N(Cc1ccccc1)Cc1ccccc1)CC(=O)c1ccc(F)cc1,GI50,Malme-3M,> 100 µM (inactive)
same,GI50,NCI-H226,> 100 µM (inactive)
same,GI50,OVCAR-3,> 100 µM (inactive)
same,GI50,TK-10,> 100 µM (inactive)
same,GI50,SW-620,> 100 µM (inactive)
same,GI50,IGROV-1,> 100 µM (inactive)
same,GI50,HT-29,> 100 µM (inactive)
same,GI50,SK-MEL-5,> 100 µM (inactive)
same,GI50,SK-OV-3,> 100 µM (inactive)
same,GI50,HCT-15,> 100 µM
same,GI50,NCI-H460,> 100 µM (inactive)
same,GI50,SF-539,23.8 µM (inactive)
same,GI50,OVCAR-8,> 100 µM (inactive)
same,GI50,HCT-116,> 100 µM (inactive)
same,GI50,M14,> 100 µM (inactive)
same,GI50,K562,> 100 µM (inactive)
same,GI50,DMS-114,> 100 µM (inactive)
same,GI50,SNB-19,> 100 µM (inactive)
same,GI50,HOP-18,> 100 µM (inactive)
same,GI50,LXFL 529,> 100 µM (inactive)
same,GI50,CCRF-CEM,> 100 µM (inactive)
same,GI50,UACC-62,> 100 µM (inactive)
same,GI50,786-0,27.2 µM (inactive)
same,GI50,SR,> 100 µM (inactive)
same,GI50,NCI-H23,> 100 µM (inactive)
same,GI50,EKVX,> 100 µM (inactive)
same,GI50,HL-60,> 100 µM (inactive)
same,GI50,SK-MEL-28,> 100 µM (inactive)
same,GI50,KM12,> 100 µM (inactive)
same,GI50,DLD-1,> 100 µM (inactive)
same,GI50,UO-31,> 100 µM (inactive)
same,GI50,COLO 205,> 100 µM (inactive)
same,GI50,HOP-62,> 100 µM (inactive)
same,GI50,ACHN,> 100 µM (inactive)
same,GI50,A549,37.1 µM (inactive)
same,GI50,U-251,> 100 µM (inactive)
same,GI50,RXF 631,> 100 µM (inactive)
same,GI50,OVCAR-4,> 100 µM (inactive)
same,GI50,OVCAR-5,> 100 µM (inactive)
same,GI50,LOX IMVI,> 100 µM (inactive)
same,GI50,HCC 2998,> 100 µM (inactive)
same,GI50,UACC-257,> 100 µM (inactive)
same,GI50,SK-MEL-2,> 100 µM (inactive)
same,GI50,KM-20L2,> 100 µM (inactive)
same,GI50,SNB-78,> 100 µM (inactive)
same,GI50,RXF 393,31.6 µM (inactive)
same,GI50,SF-268,> 100 µM (inactive)
same,GI50,SF-295,> 100 µM (inactive)
same,GI50,MOLT-4,> 100 µM (inactive)
same,GI50,M19-MEL,> 100 µM (inactive)
same,GI50,CAKI-1,> 100 µM (inactive)
same,GI50,SN12C,> 100 µM (inactive)
O=C(NCCNCCO)c1cccc2ccc(-c3ccccc3)nc12,GI50,NCI-H226,4.46 µM (inactive)
same,GI50,OVCAR-3,7.66 µM (inactive)
same,GI50,TK-10,1.44 µM (inactive)
same,GI50,SW-620,3.15 µM (inactive)
same,GI50,IGROV-1,3.12 µM (inactive)
same,GI50,HT-29,4.13 µM (inactive)
same,GI50,SK-MEL-5,3.59 µM (inactive)
same,GI50,SK-OV-3,8.13 µM (inactive)
same,GI50,HCT-15,3.8 µM
same,GI50,NCI-H460,2.02 µM (inactive)
same,GI50,SF-539,3.63 µM (inactive)
same,GI50,OVCAR-8,4.42 µM (inactive)
same,GI50,HCT-116,2.73 µM (inactive)
same,GI50,M14,5.28 µM (inactive)
same,GI50,K562,5.97 µM (inactive)
same,GI50,DMS-114,7.52 µM (inactive)
same,GI50,SNB-19,6.49 µM (inactive)
same,GI50,HOP-18,19 µM (inactive)
same,GI50,HOP-92,3.18 µM (inactive)
same,GI50,CCRF-CEM,3.4 µM (inactive)
same,GI50,UACC-62,4.54 µM (inactive)
same,GI50,786-0,6.87 µM (inactive)
same,GI50,NCI-H23,4.68 µM (inactive)
same,GI50,EKVX,5.94 µM (inactive)
same,GI50,HL-60,3.17 µM (inactive)
same,GI50,SK-MEL-28,10.4 µM (inactive)
same,GI50,KM12,5.68 µM (inactive)
same,GI50,DLD-1,3.41 µM (inactive)
same,GI50,UO-31,3.44 µM (inactive)
same,GI50,COLO 205,3.1 µM (inactive)
same,GI50,A498,1.8 µM (inactive)
same,GI50,HOP-62,10.3 µM (inactive)
same,GI50,ACHN,2.26 µM (inactive)
same,GI50,A549,2.93 µM (inactive)
same,GI50,U-251,4.82 µM (inactive)
same,GI50,RXF 631,1.83 µM (inactive)
same,GI50,DMS-273,3.86 µM (inactive)
same,GI50,OVCAR-4,6.5 µM (inactive)
same,GI50,OVCAR-5,4.8 µM (inactive)
same,GI50,LOX IMVI,2.7 µM (inactive)
same,GI50,HCC 2998,5.01 µM (inactive)
same,GI50,UACC-257,3.47 µM (inactive)
same,GI50,SK-MEL-2,7.74 µM (inactive)
same,GI50,SNB-78,9.25 µM (inactive)
same,GI50,RXF 393,3.98 µM (inactive)
same,GI50,SNB-75,10.4 µM (inactive)
same,GI50,SF-268,6.53 µM (inactive)
same,GI50,SF-295,5.58 µM (inactive)
same,GI50,MOLT-4,1.54 µM (inactive)
same,GI50,M19-MEL,4.89 µM (inactive)
same,GI50,CAKI-1,3.38 µM (inactive)
same,GI50,SN12C,3.97 µM (inactive)
